From patent US20080171737A1 (Wyeth, priority 2006, published 2008)
Structures can show the parent of a compound that is named as a salt.

Each molecule was assayed against T1, human hNET (Homo sapiens, UniProt P23975) (assay: Functional norepinephrine reuptake assay, Procedure B (6,000 cells/well)). Conditions: MDCK-Net6 cells, 6,000 cells/well, 16 nM 3H-norepinephrine; read-out: Procedure B hNET uptake IC50.
T1 construct: expressed in transfected cells; host or cells: MDCK-Net6 (MDCK cells stably transfected with hNET)
T1 sequence (P23975 whole entry): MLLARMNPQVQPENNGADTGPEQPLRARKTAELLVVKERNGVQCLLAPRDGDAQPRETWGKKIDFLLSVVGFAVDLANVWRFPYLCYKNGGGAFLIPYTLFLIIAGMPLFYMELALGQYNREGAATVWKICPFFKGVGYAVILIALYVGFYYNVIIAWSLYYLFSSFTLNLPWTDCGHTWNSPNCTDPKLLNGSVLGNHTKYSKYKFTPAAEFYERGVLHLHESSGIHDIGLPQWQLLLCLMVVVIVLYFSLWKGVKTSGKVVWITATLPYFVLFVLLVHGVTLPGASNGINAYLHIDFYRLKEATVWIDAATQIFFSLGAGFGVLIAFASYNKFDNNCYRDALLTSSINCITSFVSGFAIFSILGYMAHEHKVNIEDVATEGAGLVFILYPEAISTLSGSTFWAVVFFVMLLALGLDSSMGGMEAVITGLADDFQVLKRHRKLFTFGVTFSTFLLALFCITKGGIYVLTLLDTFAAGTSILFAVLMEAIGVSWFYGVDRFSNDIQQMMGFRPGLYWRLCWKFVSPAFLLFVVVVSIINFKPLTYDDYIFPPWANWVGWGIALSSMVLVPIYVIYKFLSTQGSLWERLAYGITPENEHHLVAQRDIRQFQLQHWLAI
Assay type: cell-based
Outline: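 MDCK cells stably expressing human NET, 6,000 cells/well, in HEPES-buffered saline pH 7.4 with ascorbic acid and 1 μM pargyline; compound preincubated 5 min at 37° C. ^3H norepinephrine uptake counted by scintillation; non-specific defined with 20 μM desipramine. IC50 from variable-slope sigmoidal nonlinear fit.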
With `CNCCCC1Sc2ccccc2N(c2ccccc2)S1(=O)=O` (stereo not shown) [Example 59, 3-(2,2-dioxido-1-phenyl-1H-2,4,1-benzodithiazin-3-yl)-N-methylpropan-1-amine Hydrochloride] the IC50 was 122 nM.
`CNCCCC1Sc2ccccc2N(c2cccc(C)c2)S1(=O)=O` (stereo not shown) [Example 60, N-methyl-3-[1-(3-methylphenyl)-2,2-dioxido-1H-2,4,1-benzodithiazin-3-yl]propan-1-amine Hydrochloride] was tested, and the IC50 was 465 nM.
Molecule `CNCCCC1Sc2ccccc2N(c2cccc(F)c2)S1(=O)=O` (stereo not shown) [Example 61, 3-[1-(3-fluorophenyl)-2,2-dioxido-1H-2,4,1-benzodithiazin-3-yl]-N-methylpropan-1-amine hydrochloride] has an IC50 of 80.7 nM.
In the case of `CNCCCC1Sc2ccccc2N(c2cccc(OC)c2)S1(=O)=O` (stereo not shown) [Example 62, 3-[1-(3-methoxyphenyl)-2,2-dioxido-1H-2,4,1-benzodithiazin-3-yl]-N-methylpropan-1-amine Hydrochloride], the IC50 is reported as 338 nM.
Molecule `CNCCCC1Sc2ccccc2N(c2ccc(C)cc2)S1(=O)=O` (stereo not shown) [Example 63, N-methyl-3-[1-(4-methylphenyl)-2,2-dioxido-1H-2,4,1-benzodithiazin-3-yl]propan-1-amine Hydrochloride] has an IC50 of 156 nM.
`CNCCCC1Sc2ccccc2N(c2ccc(F)cc2)S1(=O)=O` (stereo not shown) [Example 64, 3-[1-(4-fluorophenyl)-2,2-dioxido-1H-2,4,1-benzodithiazin-3-yl]-N-methylpropan-1-amine Hydrochloride] gave an IC50 of 1000 nM.
`CNCCCC1Sc2ccccc2N(c2cccc(Cl)c2)S1(=O)=O` (stereo not shown) [Example 66, 3-[1-(3-chlorophenyl)-2,2-dioxido-1H-2,4,1-benzodithiazin-3-yl]-N-methylpropan-1-amine Hydrochloride] gave an IC50 of 2020 nM.
In the case of `CNCCCC1Sc2ccccc2N(c2ccc(Cl)cc2)S1(=O)=O` (stereo not shown) [Example 67, 3-[1-(4-chlorophenyl)-2,2-dioxido-1H-2,4,1-benzodithiazin-3-yl]-N-methylpropan-1-amine Hydrochloride], the IC50 is reported as 1500 nM.
`CNCCCC1Sc2ccccc2N(c2ccc(F)c(Cl)c2)S1(=O)=O` (stereo not shown) [Example 68, 3-[1-(3-chloro-4-fluorophenyl)-2,2-dioxido-1H-2,4,1-benzodithiazin-3-yl]-N-methylpropan-1-amine Hydrochloride] gave an IC50 of 471 nM.
For `CNCCCC1Oc2cc3ccccc3cc2N(c2ccc(C)cc2)S1(=O)=O` (stereo not shown) [Example 69, N-methyl-3-[1-(4-methylphenyl)-2,2-dioxido-1H-naphtho[2,3-e][1,3,4]oxathiazin-3-yl]propan-1-amine Hydrochloride], the IC50 was 733 nM.
In the case of `CNCCCC1Oc2cc3ccccc3cc2N(c2cccc(F)c2)S1(=O)=O` (stereo not shown) [Example 70, 3-[1-(3-fluorophenyl)-2,2-dioxido-1H-naphtho[2,3-e][1,3,4]oxathiazin-3-yl]-N-methylpropan-1-amine Hydrochloride], the IC50 is reported as 119 nM.
Molecule `CNCCCC1Cc2ccccc2N(c2ccccc2F)S1(=O)=O` (stereo not shown) [Example 73, 3-[1-(2-fluorophenyl)-2,2-dioxido-3,4-dihydro-1H-2,1-benzothiazin-3-yl]-N-methylpropan-1-amine Hydrochloride] has an IC50 of 17.7 nM.
With `O=S1(=O)C(CCCN2CCNCC2)Oc2ccccc2N1c1ccccc1` (stereo not shown) [Example 76, 1-phenyl-3-(3-piperazin-1-ylpropyl)-1H-4,2,1-benzoxathiazine2,2-dioxide Dihydrochloride] the IC50 was 5050 nM.
`CN(C)CCCC1Oc2ccccc2N(c2ccccc2)S1(=O)=O` (stereo not shown) [Example 80, 3-(2,2-dioxido-1-phenyl-1H-4,2,1-benzoxathiazin-3-yl)-N,N-dimethylpropan-1-amine hydrochloride] was tested, and the IC50 was 4160 nM.
`CN(CCCC1Oc2ccccc2N(c2ccccc2)S1(=O)=O)C1CCCCC1` (stereo not shown) [Example 85, N-[3-(2,2-dioxido-1-phenyl-1H-4,2,1-benzoxathiazin-3-yl)propyl]-N-methylcyclo hexanamine Hydrochloride] was tested, and the IC50 was 1920 nM.
`CNCCCC1Cc2ccccc2N(c2ccccc2F)S1(=O)=O` (stereo not shown) [Example 89, 3-[1-(2-fluorophenyl)-2,2-dioxido-3,4-dihydro-1H-2,1-benzothiazin-3-yl]-N-methylpropan-1-amine] gave an IC50 of 18 nM.
`CNCCCC1Oc2ccccc2N(c2ccccc2F)S1(=O)=O` (stereo not shown) [Example 92] gave an IC50 of 19 nM.
Molecule `CNCCCC1Cc2cc(F)ccc2N(c2ccccc2F)S1(=O)=O` (stereo not shown) [Example 108, 3-[6-fluoro-1-(2-fluorophenyl)-2,2-dioxido-3,4-dihydro-1H-2,1-benzothiazin-3-yl]-N-methylpropan-1-amine] has an IC50 of 24 nM.
`CNCCCC1Oc2cc(F)ccc2N(c2ccccc2F)S1(=O)=O` (stereo not shown) [Example 129, 3-[6-fluoro-1-(2-fluorophenyl)-2,2-dioxido-1H-4,2,1-benzoxathiazin-3-yl]-N-methylpropan-1-amine hydrochloride] showed an IC50 of 95 nM.
`C=C(CNC)CC1Cc2ccccc2N(c2ccccc2)S1(=O)=O` (stereo not shown) [Example 132, 2-[(2,2-dioxido-1-phenyl-3,4-dihydro-1H-2,1-benzothiazin-3-yl)methyl]-N-methylprop-2-en-1-amine] gave an IC50 of 16 nM.
With `CN(C)CC1Oc2ccccc2N(c2ccccc2)S1(=O)=O` (stereo not shown) [Example 134, 1-(2,2-dioxido-1-phenyl-1H-4,2,1-benzoxathiazin-3-yl)-N,N-dimethylmethanamine] the IC50 was 788 nM.
Work on `O=S1(=O)C(CN2CCNCC2)Oc2ccccc2N1c1ccccc1` (stereo not shown) [Example 135, 1-phenyl-3-(piperazin-1-ylmethyl)-1H-4,2,1-benzoxathiazine 2,2-dioxide] yielded an IC50 of 165 nM.
`CCNCC1Oc2ccccc2N(c2ccccc2)S1(=O)=O` (stereo not shown) [Example 136, N-[(2,2-dioxido-1-phenyl-1H-4,2,1-benzoxathiazin-3-yl)methyl]ethanamine] showed an IC50 of 1360 nM.
For `NCCNCC1Oc2ccccc2N(c2ccccc2)S1(=O)=O` (stereo not shown) [Example 137, N-[(2,2-dioxido-1-phenyl-1H-4,2,1-benzoxathiazin-3-yl)methyl]ethane-1,2-diamine], the IC50 was 193 nM.
`CN(C)CCNCC1Oc2ccccc2N(c2ccccc2)S1(=O)=O` (stereo not shown) [Example 138, N′-[(2,2-dioxido-1-phenyl-1H-4,2,1-benzoxathiazin-3-yl)methyl]-N,N-dimethylethane-1,2-diamine] showed an IC50 of 3750 nM.
With `CNCCN(C)CC1Oc2ccccc2N(c2ccccc2)S1(=O)=O` (stereo not shown) [Example 139, N-[(2,2-dioxido-1-phenyl-1H-4,2,1-benzoxathiazin-3-yl)methyl]-N,N′-dimethylethane-1,2-diamine] the IC50 was 644 nM.
For `CN(C)CCN(C)CC1Oc2ccccc2N(c2ccccc2)S1(=O)=O` (stereo not shown) [Example 140, N-[(2,2-dioxido-1-phenyl-1H-4,2,1-benzoxathiazin-3-yl)methyl]-N,N′,N′-trimethylethane-1,2-diamine], the IC50 was 4320 nM.
With `CC1CN(CC2Oc3ccccc3N(c3ccccc3)S2(=O)=O)CC(C)N1` (stereo not shown) [Example 142, 3-[(3,5-dimethylpiperazin-1-yl)methyl]-1-phenyl-1H-4,2,1-benzoxathiazine 2,2-dioxide] the IC50 was 1150 nM.
Work on `O=S1(=O)C(CN2CC3CC2CN3)Oc2ccccc2N1c1ccccc1` (stereo not shown) [Example 143, 3-(2,5-diazabicyclo[2.2.1]hept-2-ylmethyl)-1-phenyl-1H-4,2,1-benzoxathiazine 2,2-dioxide] yielded an IC50 of 231 nM.

Same assay, conditions: MDCK-Net6 cells, 6,000 cells/well; Conc 6000 nM (6 μM); hydrochloride
In the case of `CN1CCN(CCC2Oc3ccccc3N(c3ccccc3)S2(=O)=O)CC1` (stereo not shown) [Example 87, 3-[2-(4-Methyl-piperazin-1-yl)-ethyl]-1-phenyl-1H-benzo[1,3,4]oxathiazine 2,2-dioxide hydrochloride], the “Procedure B hNET uptake (% inhibition)” value is reported as 35%.

Same assay, conditions: MDCK-Net6 cells, 6,000 cells/well; Conc 6000 nM (6 μM); read-out: Procedure B hNET uptake (% inhibition)
Work on `CNCCCC1Sc2ccccc2N(c2ccc(OC)cc2)S1(=O)=O` (stereo not shown) [Example 65, 3-[1-(4-methoxyphenyl)-2,2-dioxido-1H-2,4,1-benzodithiazin-3-yl]-N-methylpropan-1-amine hydrochloride] yielded an inhibition at 6 µM of 58%.
In the case of `O=S1(=O)C(CCN2CCCNCC2)Oc2ccccc2N1c1ccccc1` (stereo not shown) [Example 77, 3-[2-(1,4-diazepan-1-yl)ethyl]-1-phenyl-1H-4,2,1-benzoxathiazine-2,2-dioxide Dihydrochloride], the inhibition at 6 µM is reported as 33%.
With `O=S1(=O)C(CCN2CCCCC2)Oc2ccccc2N1c1ccccc1` (stereo not shown) [Example 78, 1-phenyl-3-(2-piperidin-1-ylethyl)-1H-4,2,1-benzoxathiazine 2,2-dioxide hydrochloride] the inhibition at 6 µM was 45%.
With `CC1CN(CCC2Oc3ccccc3N(c3ccccc3)S2(=O)=O)CC(C)N1` (stereo not shown) [Example 79, 3-[2-(3,5-dimethylpiperazin-1-yl)ethyl]-1-phenyl-1H-4,2,1-benzoxathiazine 2,2-dioxide hydrochloride] the inhibition at 6 µM was 21%.
For `CCN(C)CCCC1Oc2ccccc2N(c2ccccc2)S1(=O)=O` (stereo not shown) [Example 81, 3-(2,2-dioxido-1-phenyl-1H-4,2,1-benzoxathiazin-3-yl)-N-ethyl-N-methylpropan-1-amine hydrochloride], the inhibition at 6 µM was 27%.
Molecule `CCN(CC)CCCC1Oc2ccccc2N(c2ccccc2)S1(=O)=O` (stereo not shown) [Example 82, 3-(2,2-dioxido-1-phenyl-1H-4,2,1-benzoxathiazin-3-yl)-N,N-diethylpropan-1-amine hydrochloride] has an inhibition at 6 µM of 47%.
With `CCN(CCO)CCCC1Oc2ccccc2N(c2ccccc2)S1(=O)=O` (stereo not shown) [Example 83, 2-{[3-(2,2-dioxido-1-phenyl-1H-4,2,1-benzoxathiazin-3-yl)propyl](ethyl)amino}ethanol hydrochloride] the inhibition at 6 µM was 41%.
`CC(C)N(C)CCCC1Oc2ccccc2N(c2ccccc2)S1(=O)=O` (stereo not shown) [Example 84, 3-(2,2-dioxido-1-phenyl-1H-4,2,1-benzoxathiazin-3-yl)-N-isopropyl-N-methylpropan-1-amine Hydrochloride] gave an inhibition at 6 µM of 27%.
In the case of `CN(CCCC1Oc2ccccc2N(c2ccccc2)S1(=O)=O)C1CCCCC1` (stereo not shown) [Example 85, N-[3-(2,2-dioxido-1-phenyl-1H-4,2,1-benzoxathiazin-3-yl)propyl]-N-methylcyclo hexanamine Hydrochloride], the inhibition at 6 µM is reported as 62%.
`CN1CCN(CC2Oc3ccccc3N(c3ccccc3)S2(=O)=O)CC1` (stereo not shown) [Example 141, 3-[(4-methylpiperazin-1-yl)methyl]-1-phenyl-1H-4,2,1-benzoxathiazine 2,2-dioxide] gave an inhibition at 6 µM of 30%.
